Assay results: US8557265B2, “Use of a synergistic composition as a therapeutic agent of disinfectant” (Bode Chemie GmbH, priority 2007, dated 2013)

Experiments:
Assay type in all cases: cell-based
Escherichia coli = experiment: Test for antimicrobial action, colony count after plating; details: cell count of 106 in 50 μl mixed 1:1; incubation time 2 minutes; plated, 37° C.
Procedure: (§1) Fresh cultures of the indicated microorganisms were adjusted to a cell count of […] in 50 μl and then mixed in a 1:1 ratio with 50 μl of water 70% ethanol or the invented agent (100 mM ascorbic acid, 10 mM FeCl3, and 0.5% SDS). After an incubation time of 2 minutes, the 100 μl batches with the bacteria were plated out on corresponding growth dishes. After an incubation of 1-3 days at 28° C. (Saccharomyces cerevisiae and Candida parapsilosis) or 37° C. (Escherichia coli and Bacillus subtilis), the number of grown colonies was determined. In the batches with sterile water, all microorganisms survived.

Candida parapsilosis = experiment: as above; details: cell count of 106 in 50 μl mixed 1:1; incubation time 2 minutes; plated, 28° C.
Procedure: as §1

Bacillus subtilis = experiment: as above; details: cell count of 106 in 50 μl mixed 1:1; incubation time 2 minutes; plated, 37° C.
Procedure: as §1

Saccharomyces cerevisiae = experiment: as above; details: cell count of 106 in 50 μl mixed 1:1; incubation time 2 minutes; plated, 28° C.
Procedure: as §1

[1] = system: genomic DNA and extrachromosomal plasmid (Yep351) of recombinant Escherichia coli strain; experiment: Breakdown of genomic DNA and extrachromosomal plasmid DNA in microorganisms, gel electrophoresis (FIG. 1); details: E. coli suspension, lysozyme 5 minutes, then 5 minutes with 5 μl of solution
Procedure: A recombinant Escherichia coli strain with an extrachromosomal plasmid (Yep351) was cultivated overnight in LB amp medium. Every 5 μl of this E. coli suspension were treated with 5 μl of lysozyme solution (1 mg/ml) for 5 minutes and then incubated for another 5 minutes with 5 μl of the indicated solutions (1-5). After adding bromophenol blue, the samples were placed in the gel bags and the DNA molecules were separated by electrophoresis.

| Structure (SMILES) | number of grown colonies (Escherichia coli) | number of grown colonies (Candida parapsilosis) | number of grown colonies (Bacillus subtilis) | number of grown colonies (Saccharomyces cerevisiae) | effect on DNA molecules in gel electrophoresis [1] |
| --- | --- | --- | --- | --- | --- |
| CCO [70% ethanol, ethanol] | 0 | 0 | 0 | 0 | precipitation of the cell lysate and the DNA |
| CCCCCCCCCCCCOS(=O)(=O)[O-].[Na+] [sample 3, SDS] |  |  |  |  | lysis of the cells |
